Experiments:
[1] = target: T1, human GABAA receptors containing the α5 subunit (Homo sapiens, UniProt P18507+P31644); test: [3H]-flumazenil (Ro 15-1788) displacement binding assay; conditions: α5β3γ2 stably expressed in Ltk− cells; read-out: Ki value for displacement of [3H]Ro 15-1788 from the α5 subunit of the human GABAA receptor
T1 construct: expressed in transfected cells; host or cells: Ltk- cells (mouse fibroblasts), stably expressing
T1 sequence (P31644 32-462): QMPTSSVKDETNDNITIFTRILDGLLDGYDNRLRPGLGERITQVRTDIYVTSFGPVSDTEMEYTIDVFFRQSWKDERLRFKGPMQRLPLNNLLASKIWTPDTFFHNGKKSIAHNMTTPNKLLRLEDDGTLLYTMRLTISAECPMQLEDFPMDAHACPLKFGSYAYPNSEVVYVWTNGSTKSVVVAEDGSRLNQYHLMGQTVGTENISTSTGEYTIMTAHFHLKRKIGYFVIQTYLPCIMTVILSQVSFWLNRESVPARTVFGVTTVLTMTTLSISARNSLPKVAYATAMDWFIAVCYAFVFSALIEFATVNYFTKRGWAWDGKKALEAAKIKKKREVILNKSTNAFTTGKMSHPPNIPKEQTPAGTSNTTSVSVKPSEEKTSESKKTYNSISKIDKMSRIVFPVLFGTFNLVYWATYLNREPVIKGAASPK
T1 sequence (P28472 26-473 partner): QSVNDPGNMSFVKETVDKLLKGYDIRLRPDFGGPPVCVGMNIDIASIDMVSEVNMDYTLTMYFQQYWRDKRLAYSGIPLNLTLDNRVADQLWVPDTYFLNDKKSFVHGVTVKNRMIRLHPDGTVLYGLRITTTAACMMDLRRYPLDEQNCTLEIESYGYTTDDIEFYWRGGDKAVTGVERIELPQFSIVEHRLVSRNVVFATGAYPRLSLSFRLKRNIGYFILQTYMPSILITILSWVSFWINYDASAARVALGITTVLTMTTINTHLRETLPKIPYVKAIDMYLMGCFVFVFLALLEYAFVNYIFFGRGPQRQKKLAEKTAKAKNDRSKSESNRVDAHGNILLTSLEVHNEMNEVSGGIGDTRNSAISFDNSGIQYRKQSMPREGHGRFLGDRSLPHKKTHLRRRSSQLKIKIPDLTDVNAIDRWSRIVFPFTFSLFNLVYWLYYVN
T1 sequence (P18507 40-467 limits assumed): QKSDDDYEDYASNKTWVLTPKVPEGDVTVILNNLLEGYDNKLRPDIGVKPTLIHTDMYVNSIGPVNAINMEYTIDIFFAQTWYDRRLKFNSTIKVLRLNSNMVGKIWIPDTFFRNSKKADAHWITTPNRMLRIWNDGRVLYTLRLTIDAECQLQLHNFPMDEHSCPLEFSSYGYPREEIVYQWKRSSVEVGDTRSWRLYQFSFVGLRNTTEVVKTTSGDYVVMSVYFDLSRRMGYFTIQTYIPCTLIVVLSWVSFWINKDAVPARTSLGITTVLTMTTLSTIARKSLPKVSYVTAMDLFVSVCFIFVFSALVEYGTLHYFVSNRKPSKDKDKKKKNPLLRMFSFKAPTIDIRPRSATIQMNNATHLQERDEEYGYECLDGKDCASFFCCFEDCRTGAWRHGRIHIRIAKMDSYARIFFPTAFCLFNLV
Method: Phosphate buffered saline (PBS).
Assay buffer: 10 mM KH2PO4, 100 mM KCl, pH 7.4 at room temperature.
[^3H]-Flumazenil (18 nM for α1β3γ2 cells; 18 nM for α2β3γ2 cells; 10 nM for α3β3γ2 cells; 10 nM for α5β3γ2 cells) in assay buffer.
Flunitrazepam 100 μM in assay buffer.
Cells resuspended in assay buffer (1 tray to 10 ml).
Supernatant is removed from cells. PBS (approximately 20 ml) is added. The cells are scraped and placed in a 50 ml centrifuge tube. The procedure is repeated with a further 10 ml of PBS to ensure that most of the cells are removed. The cells are pelleted by centrifuging for 20 min at 3000 rpm in a benchtop centrifuge, and then frozen if desired. The pellets are resuspended in 10 ml of buffer per tray (25 cm×25 cm) of cells.
Can be carried out in deep 96-well plates or in tubes. Each tube contains:
50 μl of [^3H]-flumazenil (final concentration for α1β3γ2: 1.8 nM; for α2β3γ2: 1.8 nM; for α3β3γ2: […]; for α5β3γ2: 1.0nM). […]
Assays are incubated for 1 hour at […], then filtered using either a Tomtec or Brandel cell harvester onto GF/B filter followed by 3×3 ml washes with ice cold assay buffer. Filters are dried and counted by liquid scintillation counting. […] Binding parameters are determined by non-linear least squares regression analysis, from which the inhibition constant Ki can be calculated for the test compound.

[2] = system: cognition; test: rat water maze test (Morris); type: in vivo
Text: Cognition enhancement can be shown by testing the compound in the Morris watermaze as reported by McNamara and Skelton, Psychobiology, 21:101-108. The functional efficacy at the various receptor subtypes can be calculated using the method disclosed in WO-A-9625948.

[3] = receptor occupancy at the minimum effective dose; type: in vivo; conditions: Rattus norvegicus; at dose of 0.3 mg/kg

SMILES | Ki [1] | cognition enhancement in the rat water maze test ([2]; demonstrated at 0.3 mg/kg and also at 3 mg/kg) | minimum effective dose for cognition enhancement ([2]; rat water maze) | receptor occupancy at 0.3 mg/kg [3] | melting point
Cc1cc(-c2nnc3c4ccccc4c(OCc4cn(C)nn4)nn23)no1 [compound of the present invention, 3-(5-methylisoxazol-3-yl)-6-(1-methyl-1,2,3-triazol-4-yl)methyloxy-1,2,4-triazolo[3,4-a]phthalazine] | ≤ 100 nM | enhance cognition | 0.3 mg/kg | 40% | 
Cc1cc(-c2nnc3c4ccccc4c(OCc4cccc(Br)n4)nn23)no1 [Reference Example 2, 6-(6-Bromopyridin-2-yl)methyloxy-3-(5-methylisoxazol-3-yl)-1,2,4-triazolo[3,4-a]phthalazine] |  |  |  |  | 247.5 to 249 °C
